IC50 data for 13 compounds are collected here from patent US9206219B2, “17-hydroxy-17-pentafluorethyl-estra-4,9(10)-dien-11-aryl derivatives, methods for the production thereof and the use thereof for treating diseases” (Bayer Intellectual Property GmbH, priority 2009, dated 2015).

Experiment [1] has as its target T1, human progesterone receptor A (Homo sapiens, UniProt P06401).
T1 construct: expressed in transfected cells; host or cells: SK-N-MC human neuroblastoma cells, stably transfected with pRChPR-A-neo and pMMTV-LUC
T1 sequence (P06401 1-769 isoform P06401-2): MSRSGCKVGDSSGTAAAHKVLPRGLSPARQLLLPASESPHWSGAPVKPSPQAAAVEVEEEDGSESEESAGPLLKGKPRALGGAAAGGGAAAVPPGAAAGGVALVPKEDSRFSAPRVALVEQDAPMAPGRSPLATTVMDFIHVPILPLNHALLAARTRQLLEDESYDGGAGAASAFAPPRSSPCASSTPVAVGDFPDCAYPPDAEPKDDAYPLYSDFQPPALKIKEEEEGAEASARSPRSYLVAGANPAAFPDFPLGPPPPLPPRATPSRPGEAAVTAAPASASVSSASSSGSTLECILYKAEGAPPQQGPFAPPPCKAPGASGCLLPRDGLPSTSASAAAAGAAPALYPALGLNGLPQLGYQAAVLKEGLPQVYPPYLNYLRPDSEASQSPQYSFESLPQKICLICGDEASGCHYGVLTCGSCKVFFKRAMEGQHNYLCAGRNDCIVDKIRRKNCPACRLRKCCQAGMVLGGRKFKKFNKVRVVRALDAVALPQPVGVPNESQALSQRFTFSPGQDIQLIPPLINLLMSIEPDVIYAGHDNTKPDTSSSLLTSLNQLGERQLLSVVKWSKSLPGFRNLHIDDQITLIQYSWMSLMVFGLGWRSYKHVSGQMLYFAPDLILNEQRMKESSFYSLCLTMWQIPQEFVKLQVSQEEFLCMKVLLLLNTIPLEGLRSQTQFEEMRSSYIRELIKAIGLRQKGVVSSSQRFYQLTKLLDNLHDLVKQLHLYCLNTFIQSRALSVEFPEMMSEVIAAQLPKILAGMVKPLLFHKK
Briefly: Progesterone receptor-antagonistic action in stably transfected SK-N-MC cells, MMTV-LUC reporter (PR-A). Type of experiment: cell-based. Conditions: antagonistic potency vs 0.1 nmol/l promegestone, 24 hours. How it is done: (§1) Progesterone Receptor-Antagonistic Action in Stable Transfectants of Human Neuroblastoma Cells (SK-N-MC Cells) with the Human Progesterone A or Progesterone B Receptor and an MN-LUC Reporter Construct
(§2) SK-N-MC cells (human neuroblastoma cells) which have been stably transfected with plasmids expressing the human progesterone receptor B (pRChPR-B-neo) or the human progesterone receptor A (pRChPR-A-neo) and a reporter construct (pMMTV-LUC) were incubated for 24 hours either in the absence (negative control) or in the presence of ascending amounts of the particular test compound (0.01 nmol/l, 0.1 nmol/l, 1 nmol/l, 10 nmol/l, 100 nmol/l and […]), in order to determine the agonistic efficacy. As a positive control of the reporter gene induction, the cells were treated with the synthetic gestagen promegestone (0.01 nmol/l, 0.1 nmol/l, 1 nmol/l, 10 nmol/l, 100 nmol/l and […]). To determine the antagonistic activity, the cells were treated with 0.1 nmol/l promegestone and additionally with ascending amounts of the particular test compound (0.01 nmol/l, 0.1 nmol/l, 1 nmol/l, 10 nmol/l, 100 nmol/l and […]). The activity of the reporter gene LUC (LUC=luciferase) was determined in the cell lysates and measured as RLU (relative light units). All measurements are reported as % efficacy and as EC50 and IC50 concentrations.

The target in experiment [2] is T2, human progesterone receptor B (Homo sapiens, UniProt P06401).
T2 construct: expressed in transfected cells; host or cells: SK-N-MC human neuroblastoma cells, stably transfected with pRChPR-B-neo and pMMTV-LUC
T2 sequence (P06401 1-933): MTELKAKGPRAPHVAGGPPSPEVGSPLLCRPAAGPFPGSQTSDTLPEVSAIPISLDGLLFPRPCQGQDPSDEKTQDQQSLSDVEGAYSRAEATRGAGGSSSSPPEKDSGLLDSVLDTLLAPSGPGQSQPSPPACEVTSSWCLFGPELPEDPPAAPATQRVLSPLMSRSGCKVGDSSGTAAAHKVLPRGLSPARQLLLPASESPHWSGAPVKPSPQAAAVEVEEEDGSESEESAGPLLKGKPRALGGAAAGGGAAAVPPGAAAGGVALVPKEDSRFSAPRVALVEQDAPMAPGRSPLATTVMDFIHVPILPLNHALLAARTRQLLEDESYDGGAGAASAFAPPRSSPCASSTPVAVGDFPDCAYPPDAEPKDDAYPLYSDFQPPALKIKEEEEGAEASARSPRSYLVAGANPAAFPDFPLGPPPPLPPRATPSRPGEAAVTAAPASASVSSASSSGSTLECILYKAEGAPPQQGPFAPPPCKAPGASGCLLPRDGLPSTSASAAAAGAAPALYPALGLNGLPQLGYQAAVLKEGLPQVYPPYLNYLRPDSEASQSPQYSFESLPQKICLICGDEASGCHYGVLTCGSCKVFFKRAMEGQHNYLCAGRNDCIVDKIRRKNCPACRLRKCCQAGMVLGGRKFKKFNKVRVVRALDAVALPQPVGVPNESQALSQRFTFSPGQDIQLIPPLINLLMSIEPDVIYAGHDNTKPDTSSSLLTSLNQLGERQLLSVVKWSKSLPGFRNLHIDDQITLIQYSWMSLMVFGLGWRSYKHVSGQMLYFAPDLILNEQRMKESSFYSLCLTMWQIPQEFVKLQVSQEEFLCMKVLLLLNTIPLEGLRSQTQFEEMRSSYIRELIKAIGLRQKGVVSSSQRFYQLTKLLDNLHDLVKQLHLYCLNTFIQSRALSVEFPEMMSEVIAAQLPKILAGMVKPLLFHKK
Briefly: Progesterone receptor-antagonistic action in stably transfected SK-N-MC cells, MMTV-LUC reporter (PR-B). Type of experiment: cell-based. Conditions: antagonistic potency vs 0.1 nmol/l promegestone, 24 hours. How it is done: as §1, §2

For the compound `CC(O)c1cccc([C@H]2C[C@@]3(C)C(CC[C@@]3(O)C(F)(F)C(F)(F)F)C3CCC4=CC(=O)CCC4=C32)c1` (mixture of isomers) [Example 11, (8S,11R,13S,14S,17S)-17-hydroxy-11-[3-((RS)-1-hydroxyethyl)phenyl]-13-methyl-17-pentafluoroethyl-1,2,6,7,8,11,12,13,14,15,16,17-dodecahydrocyclopenta[a]phenanthren-3-one], the values for the 50% inhibitory concentration (IC50) in experiment [1] and in experiment [2] were 2 nM and 3 nM, respectively.

For the compound `C[C@]12C[C@H](c3ccc([C@@H]4CC4CO)cc3)C3=C4CCC(=O)C=C4CCC3C1CC[C@@]2(O)C(F)(F)C(F)(F)F` (single isomer, unassigned) [Example 6A], the IC50 in experiment [1] and in experiment [2] was 0.1 nM in each case.

As for `C[C@]12C[C@H](c3ccc(C4CC4)cc3)C3=C4CCC(=O)C=C4CC[C@H]3[C@@H]1CC[C@@]2(O)C(F)(F)C(F)(F)F` [Example 1, (8S,11R,13S,14S,17S)-11-(4-cyclopropylphenyl)-17-hydroxy-13-methyl-17-pentafluoroethyl-1,2,6,7,8,11,12,13,14,15,16,17-dodecahydrocyclopenta[a]phenanthren-3-one], the 50% inhibitory concentration (IC50) is below 0.001 nM in experiment [1] and 0.004 nM in experiment [2].

Take `CC(=O)c1cccc([C@H]2C[C@@]3(C)[C@@H](CC[C@@]3(O)C(F)(F)C(F)(F)F)[C@@H]3CCC4=CC(=O)CCC4=C32)c1` [Example 10, (8S,11R,13S,14S,17S)-11-(3-acetylphenyl)-17-hydroxy-13-methyl-17-pentafluoroethyl-1,2,6,7,8,11,12,13,14,15,16,17-dodecahydrocyclopenta[a]phenanthren-3-one]: the IC50 in experiment [1] is 5 nM; in experiment [2] it was 3 nM.

For `C[C@]12C[C@H](c3cccc(C4CC4)c3)C3=C4CCC(=O)C=C4CC[C@H]3[C@@H]1CC[C@@]2(O)C(F)(F)C(F)(F)F` [Example 12, (8S,11R,13S,14S,17S)-11-(3-cyclopropylphenyl)-17-hydroxy-13-methyl-17-pentafluoroethyl-1,2,6,7,8,11,12,13,14,15,16,17-dodecahydrocyclopenta[a]phenanthren-3-one], the IC50 came out at 4 nM in experiment [1] and 9 nM in experiment [2].

With `CC1(c2cccc([C@H]3C[C@@]4(C)[C@@H](CC[C@@]4(O)C(F)(F)C(F)(F)F)[C@@H]4CCC5=CC(=O)CCC5=C43)c2)CC1` [Example 13, (8S,11R,13S,14S,17S)-17-hydroxy-13-methyl-11-[3-(1-methylcyclopropyl)phenyl]-17-pentafluoroethyl-1,2,6,7,8,11,12,13,14,15,16,17-dodecahydrocyclopenta[a]phenanthren-3-one], the values for the IC50 in experiment [1] and in experiment [2] were 4 nM and 7 nM, respectively.

With `C[C@]12C[C@H](c3cccc(CCO)c3)C3=C4CCC(=O)C=C4CC[C@H]3[C@@H]1CC[C@@]2(O)C(F)(F)C(F)(F)F` [Example 14, (8S,11R,13S,14S,17S)-17-hydroxy-11-[3-(2-hydroxyethyl)phenyl]-13-methyl-17-pentafluoroethyl-1,2,6,7,8,11,12,13,14,15,16,17-dodecahydrocyclopenta[a]phenanthren-3-one], the IC50 in experiment [1] and in experiment [2] was 1 nM throughout.

Take `C[C@]12C[C@H](c3ccc(C(CO)CO)cc3)C3=C4CCC(=O)C=C4CC[C@H]3[C@@H]1CC[C@@]2(O)C(F)(F)C(F)(F)F` [Example 16, (8S,11R,13S,14S,17S)-17-hydroxy-11-[4-(2-hydroxy-1-hydroxymethylethyl)phenyl]-13-methyl-17-pentafluoroethyl-1,2,6,7,8,11,12,13,14,15,16,17-dodecahydrocyclopenta[a]phenanthren-3-one]: the half-inhibitory concentration (IC50) in experiment [1] came out at 0.8 nM; in experiment [2], 1 nM.

For the compound `C=CCNC(=O)NCc1ccc([C@H]2C[C@@]3(C)[C@@H](CC[C@@]3(O)C(F)(F)C(F)(F)F)[C@@H]3CCC4=CC(=O)CCC4=C32)cc1` [Example 18, 1-allyl-3-[4-((8S,11R,13S,14S,17S)-17-hydroxy-13-methyl-3-oxo-17-pentafluoroethyl-2,3,6,7,8,11,12,13,14,15,16,17-dodecahydro-1H-cyclopenta[a]phenanthren-11-yl)benzyl]urea], the IC50 in experiment [1] and in experiment [2] was 0.8 nM throughout.

Regarding `CC(C)NC(=O)NCc1ccc([C@H]2C[C@@]3(C)[C@@H](CC[C@@]3(O)C(F)(F)C(F)(F)F)[C@@H]3CCC4=CC(=O)CCC4=C32)cc1` [Example 19, 1-isopropyl-3-[4-((8S,11R,13S,14S,17S)-17-hydroxy-13-methyl-3-oxo-17-pentafluoroethyl-2,3,6,7,8,11,12,13,14,15,16,17-dodecahydro-1H-cyclopenta[a]phenanthren-11-yl)benzyl]urea], the 50% inhibitory concentration (IC50) in experiment [1] was 0.6 nM; in experiment [2], 0.7 nM.

For the compound `CC(C)(C)NC(=O)NCc1ccc([C@H]2C[C@@]3(C)[C@@H](CC[C@@]3(O)C(F)(F)C(F)(F)F)[C@@H]3CCC4=CC(=O)CCC4=C32)cc1` [Example 20, 1-tert-butyl-3-[4-((8S,11R,13S,14S,17S)-17-hydroxy-13-methyl-3-oxo-17-pentafluoroethyl-2,3,6,7,8,11,12,13,14,15,16,17-dodecahydro-1H-cyclopenta[a]phenanthren-11-yl)benzyl]urea], the IC50 in experiment [1] is 0.7 nM; in experiment [2] it was 1 nM.

Turning to `CCOC(=O)CNC(=O)NCc1ccc([C@H]2C[C@@]3(C)[C@@H](CC[C@@]3(O)C(F)(F)C(F)(F)F)[C@@H]3CCC4=CC(=O)CCC4=C32)cc1` [Example 21, {3-[4-((8S,11R,13S,14S,17S)-17-hydroxy-13-methyl-3-oxo-17-pentafluoroethyl-2,3,6,7,8,11,12,13,14,15,16,17-dodecahydro-1H-cyclopenta[a]phenanthren-11-yl)benzyl]ureido}acetic acid ethyl ester], the half-maximal inhibitory concentration (IC50) in experiment [1] came out at 1.2 nM; in experiment [2], 2.4 nM.

As to `CCOC(=O)CCNC(=O)NCc1ccc([C@H]2C[C@@]3(C)[C@@H](CC[C@@]3(O)C(F)(F)C(F)(F)F)[C@@H]3CCC4=CC(=O)CCC4=C32)cc1` [Example 22, 3-{3-[4-((8S,11R,13S,14S,17S)-17-hydroxy-13-methyl-3-oxo-17-pentafluoroethyl-2,3,6,7,8,11,12,13,14,15,16,17-dodecahydro-1H-cyclopenta[a]phenanthren-11-yl)benzyl]ureido}propionic acid ethyl ester], the IC50 in experiment [1] was 0.5 nM; in experiment [2], 0.6 nM.

For orientation: IC50 means the midpoint of a concentration-inhibition curve.
